Results taken from patent US4555572A, “Pyrazolo[3,4,5-kl]acridine compositions and methods for their production and use” (Warner-Lambert Company, priority 1984, dated 1985).
pIC50: −log10 of the molar value. Where a name gives a salt, the structure may show the parent alone. Read-outs that look alike come from different tables or passages of the source.

Legend:
[1] = test system: Branhamella catarrhalis; assay: in vitro antibacterial (ABMF) microdilution susceptibility test; type: cell-based; details: Moraxella catarrhalis, read-out: ABMF Test M.I.C. B. cata.
Text: (§1) (d) Still another test protocol is the in vitro antibacterial (ABMF) test which is a recognized standard microdilution susceptibility procedure in Mueller-Hinton broth against gram-positive and gram-negative bacterial test organisms. The procedure is a modification of a state-of-the-art procedure reported in Manual of Clinical Microbiology, Lennette, E. H., ed., by Barry, A. L. and C. Thornsberry at pages 463-474 and by Gavan, T. L. and A. L. Barry at pages 459-462, American Society for Microbiology, Washington, 1980.
(§2) In the test, a given bacterial culture is used to inoculate individaul test wells of microdilution trays containing growth medium and test compound, the latter in a microdilution series: 1000, 333, 111, 37, 12, 4, 1.4, and 0.46 micrograms per milliliter. […] For convenience, values are reported for Escherichia coli, Branhamella catarrhalis, Alcaligenes viscolactis, Streptococcus pneumoniae, and Bacillus cereus

[2] = test system: Streptococcus pneumoniae; assay: as above; type: cell-based; details: read-out: ABMF Test M.I.C. S. pneu.
Text: as §1, §2

[3] = test system: Escherichia coli; assay: as above; type: cell-based; details: read-out: ABMF Test M.I.C. E. coli
Text: as §1, §2

[4] = test system: Alcaligenes viscolactis; assay: as above; type: cell-based; details: read-out: ABMF Test M.I.C. A. visc.
Text: as §1, §2

[5] = test system: Bacillus cereus; assay: as above; type: cell-based; details: read-out: ABMF Test M.I.C. B. cere.
Text: as §1, §2

[6] = test system: lymphocytic leukemia P388; assay: in vivo lymphocytic leukemia P388 test; parameters: species or system CD2 F1 mice; details: Mus musculus, P388, ip, 120 h, intraperitoneally once daily for five days, read-out: P388 in vivo T/C × 100
Protocol: Another test protocol is the in vivo lymphocytic leukemia P388 test. The animals used are either male or female CD2 F1 mice, six or seven animals per test group. The tumor transplant is by intraperitoneal injection of dilute ascitic fluid containing cells of lymphocytic leukemia P388. The test compounds are administered intraperitoneally once daily for five consecutive days at various doses following tumor inoculation. The animals are weighed and survivors are recorded on a regular basis for 30 days. A compound is designated "toxic" if, at a given dose, all animals died prior to four days after the first injection of drug. A ratio of survival time for treated (T)/control (C) animals is calculated. A criterion for efficacy is a ratio T/C times 100 greater than or equal to 125. See Cancer Chemotherapy Reports, Part 3, 3, 1 (1972) for a comprehensive discussion of the protocol.

[7] = test system: HCT-8 cells; assay: in vitro proliferating human colon adenocarcinoma (HCA) cell screen, HCT-8; type: cell-based; details: HCT-8 cells, 60 to 65 hours
Protocol: (a) One test protocol is the in vitro proliferating human colon adenocarcinoma (HCA) cell screen. In this test, HCT-8 cells (HCA cell line received from Yale University) are trypsinized using trypsin-EDTA. A single cell suspension is achieved by passing the cells through a 26 gauge needle with a 20-cc syringe. A cell suspension is prepared using RPMI 1640+10% FCS+50 μg/ml gentamicin sulfate with a cell concentration is approximately 30,000 cells/ml. The cell suspension is dispensed in Linbro 24-well plates; 1 ml/well. The plates are incubated for approximately 48 hours at 37° C. in a 5% CO2 atmosphere. At this time test compounds are added in the appropriate concentration. Five μl of the 200 μg/ml stock solution is added to each well in a primary test. […] of the appropriate dilution is added to each well for a titration test. The plates are reincubated an additional 60 to 65 hours at 37° C. in a 5% CO 2 atmosphere. The cells are lysed using a mix of cationic surfactant, glacial acetic acid, and sodium chloride. Two ml of the lysed cell suspension from each well is added to 8 ml of diluent. The number of nuclei is determined using a Coulter counter (ZBI model), and a percent growth for each drug concentration is calculated. From this, and ID50 (molar concentration of compound that results in 50% inhibition of growth) is determined.

[8] = Mueller-Hinton broth, 37° C., 16-24 hours

Compound	MIC [1, 8] [µg/mL]	MIC [2, 8] [µg/mL]	MIC [3, 8] [µg/mL]	MIC [4, 8] [µg/mL]	MIC [5, 8] [µg/mL]	pIC50 ([7]; ED50, read-out: HCA ED50 Avg.)	response vs control in vivo at 6.25 mg/kg [6] [%]	response vs control in vivo at 12.5 mg/kg [6] [%]	response vs control in vivo at 3.12 mg/kg [6] [%]	further results
COc1cc(OC)c2c(c1)-c1nn(CCN(C)C)c3ccc([N+](=O)[O-])c(c13)N2.CS(=O)(=O)O [Example 38, 7,9-Dimethoxy-N,N-dimethyl-5-nitropyrazolo[3,4,5-kl]acridine-2(6H)-ethanamine, methanesulfonate (1:1)]	1.4	< 0.46	1000	< 0.46	< 0.46	7.19	–	–	–	response vs control in vivo at 100 mg/kg ([6]; 100 mg/kg): 119%; response vs control in vivo at 200 mg/kg ([6]; 200 mg/kg): 128%
CCOc1ccc2c(c1)-c1nn(CCN(CC)CC)c3ccc([N+](=O)[O-])c(c13)N2.CS(=O)(=O)O [Example 18, N,N-Diethyl-9-ethoxy-5-nitropyrazolo[3,4,5-kl]acridine-2(6H)-ethanamine, methanesulfonate (1:1)]	1.4	< 0.46	12.3	< 0.46	12.3	6.96	169	201	–	response vs control in vivo at 3.13 mg/kg ([6]; 3.13 mg/kg): 135%
CCCCOc1ccc2c(c1)-c1nn(CCN(CC)CC)c3ccc([N+](=O)[O-])c(c13)N2 [Example 20, 9-Butoxy-N,N-diethyl-5-nitropyrazolo[3,4,5-kl]acridine-2(6H)-ethanamine, methanesulfonate]	–	–	–	–	–	7.14	160	–	125	response vs control in vivo at 1.56 mg/kg [6]: 124%
CCCOc1ccc2c(c1)-c1nn(CCN(CC)CC)c3ccc([N+](=O)[O-])c(c13)N2.CS(=O)(=O)O [Example 19, N,N-Diethyl-5-nitro-9-propoxypyrazolo[3,4,5-kl]acridine-2(6H)-ethanamine, methanesulfonate salt (1:1)]	< 0.46	< 0.46	1000	< 0.46	12.3	6.51	167	–	137	–
CN(C)CCCn1nc2c3c(c([N+](=O)[O-])ccc31)Nc1ccc(O)cc1-2 [Example 44, 2-[3-(Dimethylamino)propyl]-2,6-dihydro-5-nitropyrazolo[3,4,5-kl]acridin-9-ol, methanesulfonate]	< 0.46	0.46	< 0.46	< 0.46	0.46	7.92	–	–	270	response vs control in vivo at 0.39 mg/kg ([6]; 0.39 mg/kg): 162%; response vs control in vivo at 0.78 mg/kg ([6]; 0.78 mg/kg): 182%; response vs control in vivo at 1.56 mg/kg [6]: 200%
CCN(CC)CCn1nc2c3c(c([N+](=O)[O-])ccc31)Nc1c(OC)cccc1-2.CS(=O)(=O)O [Example 17, N,N-Diethyl-7-methoxy-5-nitropyrazolo[3,4,5-kl]acridine-2(6H)-ethanamine, methanesulfonate (1:1)]	< 0.46	< 0.46	< 0.46	< 0.46	< 0.46	6.29	–	106	–	–
CCCCOc1ccc2c(c1)-c1nn(CCNCCO)c3ccc([N+](=O)[O-])c(c13)N2 [Example 41, 2-[[2-(9-Butoxy-5-nitropyrazolo[3,4,5-kl]acridin-2(6H)-yl)ethyl]amino]ethanol, methanesulfonate, hemihydrate]	1.4	12.3	3.7	< 0.46	12.3	6.47	159	174	147	response vs control in vivo at 1.56 mg/kg [6]: 141%
CCN(CC)CCn1nc2c([N+](=O)[O-])cc([N+](=O)[O-])c3c2c1-c1cc(OC)ccc1N3.CS(=O)(=O)O [Example 56, N,N-Diethyl-9-methoxy-3,5-dinitropyrazolo[3,4,5-kl]acridine-1(6H)-ethanamine, methanesulfonate]	–	–	–	–	–	–	–	–	–	MIC [1]: 37 µg/mL; MIC [2]: 12.3 µg/mL; MIC [3]: 1000 µg/mL; MIC [4]: < 0.46 µg/mL; MIC [5]: 333 µg/mL
CCN(CC)CCn1nc2c3c(c([N+](=O)[O-])ccc31)Nc1ccc(C)cc1-2 [Example 34, N,N-Diethyl-9-methyl-5-nitropyrazolo[3,4,5-kl]acridine-2(6H)-ethanamine, methanesulfonate (salt) (1:1)]	< 0.46	< 0.46	12.3	< 0.46	< 0.46	6.10	–	–	–	–
CCCC(=O)Oc1ccc2c(c1)-c1nn(CCN(CC)CC)c3ccc([N+](=O)[O-])c(c13)N2 [Example 29, [2-[2-(Diethylamino)ethyl]-2,6-dihydro-5-nitropyrazolo[3,4,5-kl]acridin-9-yl]butanoic ester, methanesulfonate (salt) (1:1)]	1.4	< 0.46	333	< 0.46	4.1	–	252	–	–	–
CC[N+]([O-])(CC)CCn1nc2c3c(c([N+](=O)[O-])ccc31)Nc1ccccc1-2 [Example 35, N,N-Diethyl-5-nitropyrazolo[3,4,5-kl]acridine-2(6H)-ethanamine, N-oxide, methanesulfonate salt (5:6), hydrate (4:3)]	12.3	12.3	12.3	4.1	> 1000	–	–	167	–	–
CCN(CC)CCn1nc2c3c(c([N+](=O)[O-])ccc31)Nc1c(OC)cc(OC)cc1-2 [Example 23, N,N-Diethyl-7,9-dimethoxy-5-nitropyrazolo[3,4,5-kl]acridine-2(6H)-ethanamine, methanesulfonate, hydrate (1:1)]	1.4	< 0.46	37	< 0.46	< 0.46	6.31	–	–	–	–
CCN(CC)CCn1nc2c3c(c([N+](=O)[O-])ccc31)Nc1ccc(OCc3ccccc3)cc1-2 [Example 11, monomethanesulfonate]	–	–	–	–	–	–	–	127	–	response vs control in vivo at 25 mg/kg ([6]; 25 mg/kg): 141%; response vs control in vivo at 50 mg/kg ([6]; 50 mg/kg): 194%; pIC50 ([7]; molar concentration for 50% inhibition of growth, read-out: HCA in vitro ID50 avg.): 5.64
